{"source": "patent US20260216229A1", "about": "“PROGRAMMABLE DNA PROTEOLYSIS TARGET CHIMERAS AND METHODS OF THEIR USE” (ARIZONA BOARD OF REGENTS ON BEHALF OF ARIZONA STATE …, priority 2023, published 2026)", "target": "T1, CDK6 (Homo sapiens, UniProt Q00534)", "T1 construct": "Western blot analysis of CDK6 degradation in U251 cells treated with distance-based DNA-PROTACs; endogenous in cells; host or cells: U-251 MG (U251) glioblastoma cells", "T1 sequence (Q00534 whole entry)": "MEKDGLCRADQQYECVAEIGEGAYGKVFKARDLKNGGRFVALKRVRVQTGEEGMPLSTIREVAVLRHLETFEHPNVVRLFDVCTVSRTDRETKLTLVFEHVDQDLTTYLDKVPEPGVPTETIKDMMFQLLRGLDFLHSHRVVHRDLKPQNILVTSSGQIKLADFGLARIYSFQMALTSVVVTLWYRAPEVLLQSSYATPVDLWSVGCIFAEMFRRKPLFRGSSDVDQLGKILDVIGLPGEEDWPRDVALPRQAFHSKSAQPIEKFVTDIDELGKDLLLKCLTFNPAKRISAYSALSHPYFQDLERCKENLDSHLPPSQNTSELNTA", "assay": "Western blot of CDK6 degradation in U251 cells transfected with DNA-PROTACs", "format": "cell-based", "conditions": "for CDK6 protein degradation (Western blot): 14-hour treatment", "protocol": "U-251 MG Glioblastoma Cell Line was grown in Dulbecco's Modified Eagles Medium (DMEM) containing 10% heat inactivated fetal bovine serum (FBS), streptomycin (5 μg/mL) and 5 U/mL penicillin 95 U/mL). All cell lines were maintained, and cell culture experiments were carried out in humidified incubators at 37° C. and 5% CO2 supplementation.\nOne day prior to DNA-PROTACs transfection, cells were propagated into 6 cm cell culture dishes containing appropriate complete growth medium. Prior to transfection, complete medium was replaced with transfection medium (5% FBS, no Penstrep). DNA-PROTACs transfection was performed using lipofectamine 3000 reagent according to the protocols provided by the manufacture. All transfections were carried out in 6-cm dishes with 3 mL of media and concentrations of DNA-PROTACs were calculated according to this volume (3 mL). Briefly, for 50 nM concentration, 5 μL from a 30 µM DNA-PROTACs stock and 12 μL p3000 reagent was added to a tube containing 125 μL of OPTIM-MEM and 8 μL of Lipofectamine 3000 reagent was added to a separate tube containing 125 μL of OPTIM-MEM. Two tubes were incubated for 5 minutes at room temperature and DNA-PROTACs containing OPTI-MEM was then slowly added to the second tube with lipo3000. The solution in the tube was mixed well by pipetting up and down several times. After incubating for 15-20 minutes at room temperature, 250 μL of DNA-PROTACs-lipofectamine complex was added drop wise onto cells containing the transfection medium. Transfection medium was mixed well before transferring the plate into the incubator. After appropriate time, cells were either harvested or replaced with fresh medium and incubated for desired time point prior to harvesting. For proteasome inhibition assay, 5 μM of MG-132 was incubated with cells for 2 h prior to transfection of DNA-PROTACs. Then, cells were incubated for another 12 h before lysing cells. Cell lysates were prepared by incubating cells in RIPA lysis buffer (25 mM Tris pH 7.6, 150 mM NaCl, 1% NP40, 1% deoxycholate, 0.1% SDS, 1× protease inhibitor cocktail from Roche and 1 mM of PMSF) on ice for 30 minutes and cell lysate was clarified by centrifugation at high speed (15 000 rpm) for 15 minutes. Clear supernatant was collected for further experiments.\nProtein concentration in all the cell lysates were measured by BCA protein assay kit and equal amounts from each lysate were mixed with 4×loading dye and boiled for 5 minutes followed by 2 minutes centrifugation prior to loading into SDS-PAGE gel. Next proteins on the SDS-PAGE gel were transferred to a Nitrocellulose membrane by western blotting and the membrane was blocked with 5% milk in TBST (0.05% Tween 20) for 1 h. Primary antibodies (all Abcam antibodies were diluted 1:5000) were prepared in TBST with 2.5% milk and membranes were incubated overnight at 4° C. On the following day, membrane was washes for 15 minutes (Incubate for three times, 5 minutes each) and appropriate secondary antibodies (1:5000) were prepared in TBST and incubated with the membrane for 1 h at room temperature (RT). Membrane was washed for 15 minutes with TBST (incubate for three times, […]) prior to imaging.\nThe degradation efficiency of various DNA-PROTACs was evaluated through their transfection into U251 cells, conducted simultaneously to ensure uniform experimental conditions. A double-stranded DNA sequence without any ligand was utilized as a negative control, providing a baseline for comparison. Following a 14-hour treatment period, a duration selected based on preliminary time-course studies, the cells were harvested using trypsin digestion. The lysates obtained were then subjected to SDS-PAGE, followed by Western blot analysis to assess protein degradation. […] This finding highlights the efficacy of DNA-PROTAC V02 in targeting and reducing CDK6 protein levels. In comparison, DNA-PROTAC Versions 03 and 04 also facilitated protein degradation, albeit with varying degrees of efficiency. […]", "data": [{"molecule": "CC(=O)c1c(C)c2cnc(Nc3ccc(N4CCN(CCOCCOCCOCCNC(=O)COc5cccc6c5C(=O)N(C5CCC(=O)NC5=O)C6=O)CC4)cn3)nc2n(C2CCCC2)c1=O", "note": "(centres unmarked) [BSJ-03-123, reference compound]", "values": [{"measurement": "CDK6 protein levels (Western blot)", "setting": "160 nM treatment", "value": "discernible reduction in protein levels"}]}, {"molecule": "A-minor-00: angular-series DNA duplex of E3-i strand SEQ ID NO 3 and POI-i strand SEQ ID NO 5 (chain 1 ACTCCATCTANTTCTACGCCA; chain 2 TGGCGTAGAATAGANTGGAGT; pomalidomide and POI ligand conjugated; modified_base 1 OTHER; Nucleotide with phosphorothioate linkage; modified_base 2 OTHER; modified_base 3 OTHER; misc_difference 11 E3 ligase attached to 3-Dimethoxytrityloxy-2-(3-(fluorenylmethoxycarbonylamino)propanamido)propyl-1-O-(2-cyanoethyl)-(N,N-diisopropyl)-phosphoramidite modified adenosine, cytidine, thymi; m)", "values": [{"measurement": "CDK6 protein degradation (Western blot)", "setting": "concentration not given", "value": "marginal CDK6 degradation"}]}, {"molecule": "A-minor-01: angular-series DNA duplex of E3-i strand SEQ ID NO 3 and POI-i strand SEQ ID NO 21 (chain 1 ACTCCATCTANTTCTACGCCA; chain 2 TGGCGTAGAATAGNATGGAGT; E3 and POI ligands conjugated; modified_base 1 OTHER; Nucleotide with phosphorothioate linkage; modified_base 2 OTHER; modified_base 3 OTHER; misc_difference 11 E3 ligase attached to 3-Dimethoxytrityloxy-2-(3-(fluorenylmethoxycarbonylamino)propanamido)propyl-1-O-(2-cyanoethyl)-(N,N-diisopropyl)-phosphoramidite modified adenosine, cytidine, thymi; m)", "values": [{"measurement": "CDK6 protein degradation (Western blot)", "setting": "100 nM", "value": "substantial degradation"}]}, {"molecule": "A-minor-02: angular-series DNA duplex of E3-i strand SEQ ID NO 3 and POI-i strand SEQ ID NO 22 (chain 1 ACTCCATCTANTTCTACGCCA; chain 2 TGGCGTAGAATANGATGGAGT; E3 and POI ligands conjugated; modified_base 1 OTHER; Nucleotide with phosphorothioate linkage; modified_base 2 OTHER; modified_base 3 OTHER; misc_difference 11 E3 ligase attached to 3-Dimethoxytrityloxy-2-(3-(fluorenylmethoxycarbonylamino)propanamido)propyl-1-O-(2-cyanoethyl)-(N,N-diisopropyl)-phosphoramidite modified adenosine, cytidine, thymi; m)", "values": [{"measurement": "CDK6 protein degradation (Western blot)", "setting": "100 nM", "value": "substantial degradation"}]}, {"molecule": "A-minor-03: angular-series DNA duplex of E3-i strand SEQ ID NO 3 and POI-i strand SEQ ID NO 23 (chain 1 ACTCCATCTANTTCTACGCCA; chain 2 TGGCGTAGAATNAGATGGAGT; E3 and POI ligands conjugated; modified_base 1 OTHER; Nucleotide with phosphorothioate linkage; modified_base 2 OTHER; modified_base 3 OTHER; misc_difference 11 E3 ligase attached to 3-Dimethoxytrityloxy-2-(3-(fluorenylmethoxycarbonylamino)propanamido)propyl-1-O-(2-cyanoethyl)-(N,N-diisopropyl)-phosphoramidite modified adenosine, cytidine, thymi; m)", "values": [{"measurement": "concentration at which significant CDK6 degradation begins", "setting": "14 hours, angular series", "value": 20, "unit": "nM"}]}, {"molecule": "Version 03: DNA duplex of E3-i strand SEQ ID NO 3 and POI-i strand SEQ ID NO 5 (chain 1 ACTCCATCTANTTCTACGCCA; chain 2 TGGCGTAGAATAGANTGGAGT; E3 and POI ligands conjugated; modified_base 1 OTHER; Nucleotide with phosphorothioate linkage; modified_base 2 OTHER; modified_base 3 OTHER; misc_difference 11 E3 ligase attached to 3-Dimethoxytrityloxy-2-(3-(fluorenylmethoxycarbonylamino)propanamido)propyl-1-O-(2-cyanoethyl)-(N,N-diisopropyl)-phosphoramidite modified adenosine, cytidine, thymi; m)", "values": [{"measurement": "CDK6 protein degradation (Western blot)", "setting": "100 nM", "value": "substantially reduce CDK6 protein levels"}]}, {"molecule": "Version 04: DNA duplex of E3-i strand SEQ ID NO 3 and POI-i strand SEQ ID NO 6 (chain 1 ACTCCATCTANTTCTACGCCA; chain 2 TGGCNGTAGAATAGATGGAGT; E3 and POI ligands conjugated; modified_base 1 OTHER; Nucleotide with phosphorothioate linkage; modified_base 2 OTHER; modified_base 3 OTHER; misc_difference 11 E3 ligase attached to 3-Dimethoxytrityloxy-2-(3-(fluorenylmethoxycarbonylamino)propanamido)propyl-1-O-(2-cyanoethyl)-(N,N-diisopropyl)-phosphoramidite modified adenosine, cytidine, thymi; m)", "values": [{"measurement": "CDK6 protein degradation (Western blot)", "setting": "50 nM", "value": "more pronounced reduction in protein levels"}]}, {"molecule": "Version 05: DNA duplex of E3-i strand SEQ ID NO 18 and POI-i strand SEQ ID NO 20; largest ligand distance of approximately 60.2 Å (chain 1 ANCTCCATCTATTCTACGCCA; chain 2 TNGGCGTAGAATAGATGGAGT; E3 and POI ligands conjugated; modified_base 1 OTHER; Nucleotide with phosphorothioate linkage; misc_difference 2 E3 ligase attached to 3-Dimethoxytrityloxy-2-(3-(fluorenylmethoxycarbonylamino)propanamido)propyl-1-O-(2-cyanoethyl)-(N,N-diisopropyl)-phosphoramidite modified adenosine, cytidine, thymidine, guanosine, unknown or other nucleotide with phosphorothioate linkage; modified_base 3 OTHER; Nucleotide with phosphorothioate; misc_difference 2 Protein of interest attached to 3-Dimethoxytrityloxy-2-(3-(fluorenylmethoxycarbonylamino)propanamido)propyl-1-O-()", "values": [{"measurement": "CDK6 protein degradation (Western blot)", "setting": "50 nM and 100 nM, vs ligand-free dsDNA control", "value": "did not exhibit any discernible protein degradation"}]}]}
